The results in this text go back to paper PMC8286840, “Identifying SARS-CoV-2 antiviral compounds by screening for small molecule inhibitors of Nsp3 papain-like protease” (Biochemical Journal, 2021).

Structures are written as SMILES. Where a name gives a salt, the structure may show the parent alone. Read-outs that look alike come from different tables or passages of the source.

Experiment [1] addresses T1, SARS-CoV-2 PLpro (nsp3 1564–1878) (Severe acute respiratory syndrome coronavirus 2, UniProt P0DTD1). Put plainly: biochemical. Also noted: FRET-quenched peptide (Pro3) cleavage by PLpro, 10 min pre-incubation, slope over 20 min, normalised to no-compound control. Conditions: low concentration screen, read-out: % of control remaining.
Experiment [2] addresses T1, SARS-CoV-2 PLpro (nsp3 1564–1878). Put plainly: biochemical. Also noted: FRET-quenched peptide (Pro3) cleavage by PLpro, 10 min pre-incubation, slope over 20 min, normalised to no-compound control. To be noted: high concentration screen, read-out: % of control remaining.

As for `OCc1ccc(-c2nn(Cc3ccccc3)c3ccccc23)o1` [Lificiguat], the remaining activity at 1.25 µM in experiment [1] (Well no.=7713) came out at 99%. In addition, in experiment [2] (Well no.=7713), the remaining activity at 3.75 µM is 82.8%.
For the molecule `CC(N)[C@H](O)c1ccc(O)c(O)c1` (single isomer, unassigned; (-)) [(-)-alpha-Methylnorepinephrine], the remaining activity at 1.25 µM in experiment [1] (Well no.=547) stood at 102%. Further, the remaining activity at 3.75 µM in experiment [2] (Well no.=547) is 103%.
As to `COC(=O)/C=C/c1cccc(N(Cc2ccc(-c3ccc(N(C)C)cc3)cc2)C(=O)C2CCCCC2)c1` [Fexaramine], the remaining activity at 1.25 µM in experiment [1] (Well no.=5559) is 97.4%. Further, the remaining activity at 3.75 µM in experiment [2] (Well no.=5559) was 104%.
For the molecule `C[C@@]12C=Cc3occc3[C@H]1CC[C@]13CC(=O)[C@H](CC[C@H]12)C3` [16-Oxokahweol], the remaining activity at 1.25 µM in experiment [1] (Well no.=3693) was 94.8%. The remaining activity at 3.75 µM in experiment [2] (Well no.=3693) was 99%.
With `CCN(CC)CCNC(=O)c1ccc(NC(C)=O)cc1` [N-Acetylprocainamide hydrochloride], the remaining activity at 1.25 µM in experiment [1] (Well no.=19) was 104%. The remaining activity at 3.75 µM in experiment [2] (Well no.=19) was 103%.
With `CCCCCCCCCCC/C=C/CCCCC(=O)O` [6(E)-Octadecenoic acid], the remaining activity at 1.25 µM in experiment [1] (Well no.=4318) worked out at 105%. In addition, in experiment [2] (Well no.=4318), the remaining activity at 3.75 µM came to 99.5%.
Consider `C=CCc1ccccc1OCC(O)CNC1(C)CCC(C(C)(C)NC(=O)CBr)CC1` (stereo not drawn) [Bromoacetyl alprenolol menthane], for which the remaining activity at 1.25 µM in experiment [1] (Well no.=275) was 91.4%. Moreover, the remaining activity at 3.75 µM in experiment [2] (Well no.=275) was determined as 93.3%.
As for `c1ccc(CN(CC2=NCCN2)c2ccccc2)cc1` [Antazoline (hydrochloride)], in experiment [1] (Well no.=7425), the remaining activity at 1.25 µM was 112%. Further, the remaining activity at 3.75 µM in experiment [2] (Well no.=7425) amounted to 102%.
For `CC(C)(C)C(=O)OCOC(=O)[C@@H]1N2C(=O)[C@@H](/N=C/N3CCCCCC3)[C@H]2SC1(C)C` [Pivmecillinam], the remaining activity at 1.25 µM in experiment [1] (Well no.=5414) was 93.3%. For the same molecule, in experiment [2] (Well no.=5414), the remaining activity at 3.75 µM is 98.6%.
For `CC(C)C[C@H]1C(=O)N2CCC[C@H]2[C@]2(O)O[C@](NC(=O)[C@@H]3C=C4c5cccc6[nH]c(Br)c(c56)C[C@H]4N(C)C3)(C(C)C)C(=O)N12` [Bromocriptine mesylate], the remaining activity at 1.25 µM was 92.4% in experiment [1] (Well no.=1811) and 104% in experiment [1] (Well no.=3485). Further, the results for the remaining activity at 3.75 µM in experiment [2] (Well no.=1811) and in experiment [2] (Well no.=3485) were 91.6% and 101%, respectively.
`C#CCN(C)Cc1ccccc1` [Pargyline hydrochloride]: in experiment [1] (Well no.=1445), the remaining activity at 1.25 µM is 99.1%. Besides, the remaining activity at 3.75 µM in experiment [2] (Well no.=1445) turned out to be 98.9%.
Turning to `Cn1cc(C2=C(c3ccc(Cl)cc3Cl)C(=O)NC2=O)c2ccccc21` [SB 216763 - 3-(2,4-Dichlorophenyl)-4-(1-methyl-1H-indol-3-yl)-1H-pyrrole-2,5-dione], in experiment [1] (Well no.=2442), the remaining activity at 1.25 µM is 96.9%. Also, the remaining activity at 3.75 µM in experiment [2] (Well no.=2442) stood at 100%.
For `NCCNS(=O)(=O)c1cccc2cnccc12` [H-9 dihydrochloride], the remaining activity at 1.25 µM in experiment [1] (Well no.=340) worked out at 96.1%. The remaining activity at 3.75 µM in experiment [2] (Well no.=340) turned out to be 100%.
For the molecule `O=C(O)c1ccc[nH]1` [Pyrrole-2-carboxylic acid], the remaining activity at 1.25 µM in experiment [1] (Well no.=6405) came to 93.2%. In addition, the remaining activity at 3.75 µM in experiment [2] (Well no.=6405) is 92.4%.
On to `CCCCCCCC/C=C\CCCCCCCC(=O)NCCO` [N-Oleoylethanolamine], for which, in experiment [1] (Well no.=1086), the remaining activity at 1.25 µM came to 96.9%. Besides, in experiment [2] (Well no.=1086), the remaining activity at 3.75 µM was 94.6%.
Regarding `NC(=O)OCC(COC(N)=O)c1ccccc1` [Felbamate], the remaining activity at 1.25 µM is 101% in experiment [1] (Well no.=609) and 102% in experiment [1] (Well no.=1543). Besides, the results for the remaining activity at 3.75 µM in experiment [2] (Well no.=609) and in experiment [2] (Well no.=1543) were 104% and 101%, respectively.
For `COC1=CC(=O)O[C@@H](/C=C/c2ccc3c(c2)OCO3)C1` [Methysticin], in experiment [1] (Well no.=3565), the remaining activity at 1.25 µM came out at 105%. Besides, the remaining activity at 3.75 µM in experiment [2] (Well no.=3565) came to 108%.
As to `C[C@H]1CC[C@@H](C(C)(C)O)CC2=C1CC[C@@H]2C` [(-)-Guaiol], the remaining activity at 1.25 µM in experiment [1] (Well no.=3076) came to 98.4%. Moreover, in experiment [2] (Well no.=3076), the remaining activity at 3.75 µM was determined as 99.3%.
As for `Cc1cn([C@H]2C=C[C@@H](CO)O2)c(=O)[nH]c1=O` [2',3'-didehydro-3'-deoxythymidine], the remaining activity at 1.25 µM in experiment [1] (Well no.=445) amounted to 104%. Besides, in experiment [2] (Well no.=445), the remaining activity at 3.75 µM is 105%.
For `Cc1nc2n(c(=O)c1CCN1CCC(c3noc4cc(F)ccc34)CC1)CCCC2O` (stereo not drawn) [Paliperidone], in experiment [1] (Well no.=8197), the remaining activity at 1.25 µM is 109%. Also, the remaining activity at 3.75 µM in experiment [2] (Well no.=8197) came out at 99.6%.
Turning to `OC[C@@H](O)[C@@H](O)CO` [meso-Erythritol], the remaining activity at 1.25 µM in experiment [1] (Well no.=6547) worked out at 107%. Further, the remaining activity at 3.75 µM in experiment [2] (Well no.=6547) came to 106%.
Take `O=C1CC2(CCCC2)CC(=O)N1CCCCN1CCN(c2ncccn2)CC1` [Buspirone hydrochloride]: the remaining activity at 1.25 µM in experiment [1] (Well no.=319) was 98.2%. In experiment [2] (Well no.=319), the remaining activity at 3.75 µM amounted to 99.4%.
Regarding `CC(C)[C@H]1CC[C@H](C(=O)N[C@H](Cc2ccccc2)C(=O)O)CC1` [Nateglinide], the remaining activity at 1.25 µM in experiment [1] (Well no.=1546) stood at 103%; in experiment [1] (Well no.=7504), 102%. Moreover, the results for the remaining activity at 3.75 µM in experiment [2] (Well no.=1546) and in experiment [2] (Well no.=7504) were 103% and 102%, respectively.
With `Cc1cc(OCCCc2c3n(c4c(-c5c(C)nn(C)c5C)c(Cl)ccc24)[C@H](C)CN(c2cn(C)c4ccc(C(=O)O)cc24)C3=O)cc(C)c1Cl` [VU0661013], the remaining activity at 1.25 µM in experiment [1] (Well no.=7066) was found to be 105%. For the same molecule, the remaining activity at 3.75 µM in experiment [2] (Well no.=7066) is 98.3%.
For the molecule `CC1(C)S[C@@H]2[C@H](NC(=O)C(C(=O)O)c3ccccc3)C(=O)N2[C@H]1C(=O)O` (stereo partly drawn) [Carbenicillin disodium], in experiment [1] (Well no.=5030), the remaining activity at 1.25 µM was determined as 96.4%. In addition, in experiment [2] (Well no.=5030), the remaining activity at 3.75 µM is 96.8%.
In the case of `CC(C)[C@H]1CN[C@H](C(=O)O)[C@H]1CC(=O)O` [Dihydrokainic acid], the remaining activity at 1.25 µM in experiment [1] (Well no.=635) came to 93.4%. In experiment [2] (Well no.=635), the remaining activity at 3.75 µM stood at 94%.
As to `COc1cc2c3cc1Oc1c(OC)c(OC)cc4c1[C@@H](Cc1ccc(OC(=O)c5ccc([N+](=O)[O-])cc5)c(c1)Oc1ccc(cc1)C[C@@H]3N(C)CC2)N(C)CC4` [E6 Berbamine], the remaining activity at 1.25 µM in experiment [1] (Well no.=3237) worked out at 97.5%. Also, the remaining activity at 3.75 µM in experiment [2] (Well no.=3237) amounted to 95%.
In the case of `COc1ccc2c(c[n+](C)c3c4cc5c(cc4ccc23)OCO5)c1OC` [Chelerythrine], in experiment [1] (Well no.=3533), the remaining activity at 1.25 µM turned out to be 102%. Besides, in experiment [2] (Well no.=3533), the remaining activity at 3.75 µM worked out at 101%.
`C#CCOc1ccc2c(c1)c(-c1ccc(C(C)C)cc1)nc(=O)n2C(C)C` [Calcium-Sensing Receptor Antagonists I]: the remaining activity at 1.25 µM in experiment [1] (Well no.=8007) was found to be 101%. Moreover, in experiment [2] (Well no.=8007), the remaining activity at 3.75 µM came out at 98.6%.
For `O=C(/C=C/c1ccc(O)c(O)c1)O[C@@H]1C[C@@](O)(C(=O)O)C[C@@H](O)[C@@H]1O` [Neochlorogenic acid], the remaining activity at 1.25 µM in experiment [1] (Well no.=6490) was 98%. Moreover, the remaining activity at 3.75 µM in experiment [2] (Well no.=6490) stood at 98.3%.
